This is an account of results in patent EP0640088B1, “NOVEL TRICYCLIC THIAZOLO AND THIAZINO DERIVATIVES AND ANTI-VIRAL MEDICAMENTS CONTAINING THEM” (BOEHRINGER MANNHEIM GMBH, priority 1992, dated 1993).

The target of this assay is T1, RT aus HIV-1 (Human immunodeficiency virus type 1 group M subtype B, UniProt P04585).
T1 construct: die gereinigte RT aus HIV-1; made in house; host or cells: E. coli
As to the kind of experiment: Inhibition of reverse transcriptase (RT), screening test system measuring [3H]-thymidine-5'-triphosphate incorporation. It counts as biochemical. From the text: Hemmung der Reversen Transkriptase (RT)
Das Screeningtestsystem beinhaltet die gereinigte RT aus HIV-1, die durch gentechnologische Methoden in E. coli exprimiert wurde, sowie die Komponenten des Initiationskomplexes, wie die in-vitro-Transkripte des HIV-LTR's mit der benachbarten Primer Binding Site als Template und einem zur Primer Binding Site komplementären 18mer Oligonukleotid als Primer. Gemessen wurde der [^3H]-Thymidin-5'-triphosphat-Einbau durch Auszählen im β-Counter.

Where two headings read alike, the source gives them in different places.

As for `O=C1Nc2ccccc2C2(c3ccccc3)SCCN12` (stereo not shown) [Beispiel 1 b, 10b-Phenyl-2,3,6,10-tetrahydro-5H-thiazolo[3,2-c]quinazolin-5-on], half-maximal inhibition (IC50) required 470 nM. Consider `O=C1Nc2ccccc2C2(c3ccccc3)SCCCN12` (stereo not shown) [Beispiel 2, 11b-Phenyl-3,4,7,11b-tetrahydro-2H,6H-[1,3]thiazino[3,2-c]quinazolin-6-on], for which the 50% inhibitory concentration (IC50) (usually the midpoint of a concentration-inhibition curve) came to 510 nM. Consider `O=C1Nc2ccc(Cl)cc2C2(c3ccccc3)SCCN12` (stereo not shown) [Beispiel 4, 9-Chlor-10b-phenyl-2,3,6,10b-tetrahydro-5H-thiazolo[3,2-c]quinazolin-5-on], for which the IC50 (purified recombinant RT from HIV-1 expressed in E. coli, HIV-LTR in-vitro transcript as template, 18mer oligonucleotide primer, [3H]-TTP incorporation, β-counter, read-out: Hemmung der HIV-RT IC50) was 30 nM. `Cc1cccc(C23SCCN2C(=O)Nc2ccccc23)c1` (stereo not shown) [Beispiel 5 b, 10b-(3-Methylphenyl)-2,3,6,10b-tetrahydro-5H-thiazolo[3,2-c]quinazolin-5-on] showed an IC50 of 30 nM. `Cc1cccc(C23SCCN2C(=O)Nc2ccccc23)n1` (stereo not shown) [Beispiel 5 f, 10b-(6-Methyl-2-pyridyl)-2,3,6,10b-tetrahydro-5H-thiazolo[3,2-c]quinazolin-5-on]: the half-inhibitory concentration (IC50) came to 200 nM. Compound `CN1C(=O)N2CCSC2(c2ccccc2)c2ccccc21` (stereo not shown) [Beispiel 6, 6-Methyl-10b-phenyl-2,3,6,10b-tetrahydro-5H-thiazolo [3,2-c]quinazolin-5-on] yielded an IC50 of 6200 nM. Take `S=C1Nc2ccccc2C2(c3ccccc3)SCCN12` (stereo not shown) [Beispiel 7, 10b-Phenyl-2,3,6,10b-tetrahydro-5H-thiazolo[3,2-c]quinazolin-5-thion]: inhibition was half-maximal at 30 nM (IC50).
